Molecular target: T1, hMAGL (Homo sapiens, UniProt Q99685)
T1 sequence (Q99685 1-303): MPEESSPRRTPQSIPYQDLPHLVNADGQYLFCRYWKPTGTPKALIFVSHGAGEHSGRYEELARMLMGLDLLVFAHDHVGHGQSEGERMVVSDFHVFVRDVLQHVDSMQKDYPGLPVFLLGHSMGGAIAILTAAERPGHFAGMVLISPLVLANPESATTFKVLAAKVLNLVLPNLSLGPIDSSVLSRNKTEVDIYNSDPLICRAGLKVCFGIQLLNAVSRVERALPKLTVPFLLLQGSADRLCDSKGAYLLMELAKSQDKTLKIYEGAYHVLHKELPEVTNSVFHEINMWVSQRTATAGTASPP
Test: 2-AG assay: MAGL inhibition, hydrolysis of 2-arachidonoylglycerol to arachidonic acid followed by mass spectrometry
Assay type: biochemical
Outline: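 Read-out is LC-MS/MS of arachidonic acid released from 2-arachidonoylglycerol (8 μM final), normalised to d8-arachidonic acid internal standard after acetonitrile quench. Enzyme […] and compound were pre-mixed 15 min, then reacted 30 min, both at RT, in Tris/EDTA buffer with 0.01% Tween-20 and 2.5% DMSO.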

Going from `Cc1cc(C2CC2)nn1CC1CC2(C1)CN(C(=O)N1CC3(CC(n4cnc(C5CC5)n4)C3)C1)C2` [Example 135, [6-[(3-cyclopropyl-5-methyl-pyrazol-1-yl)methyl]-2-azaspiro[3.3]heptan-2-yl]-[6-(3-cyclopropyl-1,2,4-triazol-1-yl)-2-azaspiro[3.3]heptan-2-yl]methanone] to `Cc1cc(C2CC2)nn1CC1CC2(C1)CN(C(=O)N1CC3(CC(n4cnc(C5(O)CC5)n4)C3)C1)C2` [Example 136, [6-[(3-cyclopropyl-5-methyl-pyrazol-1-yl)methyl]-2-azaspiro[3.3]heptan-2-yl]-[6-[3-(1-hydroxycyclopropyl)-1,2,4-triazol-1-yl]-2-azaspiro[3.3]heptan-2-yl]methanone], the IC50 rises from 0.23 nM to 5.53 nM (24-fold). The first is the more potent here.

Compared with `Cn1nc(CC2CC3(C2)CN(C(=O)N2CC4(CC(n5cnc(C6(O)CC6)n5)C4)C2)C3)c(C(F)(F)F)n1` [Example 137], `O=C(N1CC2(CC(Cc3nc(C(F)(F)F)no3)C2)C1)N1CC2(CC(n3cnc(C4(O)CC4)n3)C2)C1` [Example 138] is 7.5-fold higher in IC50: 2.4 nM for the first, 18.1 nM for the second. The first is the more potent here.

Going from `O=C(N1CC2(CC(Cc3cc(C(F)(F)F)nn3CC(F)(F)F)C2)C1)N1CC2(CC(n3cnc(C4(O)CC4)n3)C2)C1` [Example 139] to `O=C(N1CC2(CC(Cc3cc(C(F)(F)F)nn3CC(F)(F)F)C2)C1)N1CC2(CC(n3cnc(C(F)(F)F)n3)C2)C1` [Example 140, [6-[[2-(2,2,2-trifluoroethyl)-5-(trifluoromethyl)pyrazol-3-yl]methyl]-2-azaspiro[3.3]heptan-2-yl]-[6-[3-(trifluoromethyl)-1,2,4-triazol-1-yl]-2-azaspiro[3.3]heptan-2-yl]methanone], the IC50 falls from 2.08 nM to 0.47 nM (4.4-fold).

First: O=C(N1CC2(CC(Cn3ccc(C4CC4)n3)C2)C1)N1CC2(CC(n3cnc(C(F)(F)F)n3)C2)C1 [Example 142, [6-[(3-cyclopropylpyrazol-1-yl)methyl]-2-azaspiro[3.3]heptan-2-yl]-[6-[3-(trifluoromethyl)-1,2,4-triazol-1-yl]-2-azaspiro[3.3]heptan-2-yl]methanone]
Second: O=C(N1CC2(CC(Cn3ccc(C4CC4)n3)C2)C1)N1CC2(CC(n3cnc(C4CC4)n3)C2)C1 [Example 143, [6-[(3-cyclopropylpyrazol-1-yl)methyl]-2-azaspiro[3.3]heptan-2-yl]-[6-(3-cyclopropyl-1,2,4-triazol-1-yl)-2-azaspiro[3.3]heptan-2-yl]methanone]
The IC50 of the first is 2.5-fold higher: 0.94 nM for the first, 0.38 nM for the second.

First: O=C(N1CC2(CC(Cn3cc(CC(F)(F)F)cn3)C2)C1)N1CC2(CC(n3cnc(C4(O)CC4)n3)C2)C1 [Example 144, [6-[3-(1-hydroxycyclopropyl)-1,2,4-triazol-1-yl]-2-azaspiro[3.3]heptan-2-yl]-[6-[[4-(2,2,2-trifluoroethyl)pyrazol-1-yl]methyl]-2-azaspiro[3.3]heptan-2-yl]methanone]
Second: O=C(N1CC2(CC(Cn3ccnc3C(F)(F)F)C2)C1)N1CC2(CC(n3cnc(C4(O)CC4)n3)C2)C1 [Example 146]
The IC50 of the first is 2.2-fold lower: 6.75 nM for the first, 14.8 nM for the second. The first is the more potent here.

Compared with `O=C(N1CC2(CC(Cn3ccnc3C(F)(F)F)C2)C1)N1CC2(CC(c3cc(C4CC4)n[nH]3)C2)C1` [Example 145, [6-(3-cyclopropyl-1H-pyrazol-5-yl)-2-azaspiro[3.3]heptan-2-yl]-[6-[[2-(trifluoromethyl)imidazol-1-yl]methyl]-2-azaspiro[3.3]heptan-2-yl]methanone], `O=C(N1CC2(CC(c3cc(C4CC4)n[nH]3)C2)C1)N1CC2(CN(Cc3ncc(C(F)(F)F)s3)C2)C1` [Example 147, [6-(3-cyclopropyl-1H-pyrazol-5-yl)-2-azaspiro[3.3]heptan-2-yl]-[6-[[5-(trifluoromethyl)thiazol-2-yl]methyl]-2,6-diazaspiro[3.3]heptan-2-yl]methanone] is 2.6-fold higher in IC50: 0.4 nM for the first, 1.04 nM for the second.

First: O=C(N1CC2(CC(n3cnc(C4(O)CC4)n3)C2)C1)N1CC2(CN(Cc3ncc(C(F)(F)F)s3)C2)C1 [Example 148, [6-[3-(1-hydroxycyclopropyl)-1,2,4-triazol-1-yl]-2-azaspiro[3.3]heptan-2-yl]-[6-[[5-(trifluoromethyl)thiazol-2-yl]methyl]-2,6-diazaspiro[3.3]heptan-2-yl]methanone]
Second: O=C(N1CC2(CC(n3cnc(C4(O)CC4)n3)C2)C1)N1CC2(CN(Cc3cc(C(F)(F)F)sn3)C2)C1 [Example 155, [6-[3-(1-hydroxycyclopropyl)-1,2,4-triazol-1-yl]-2-azaspiro[3.3]heptan-2-yl]-[6-[[5-(trifluoromethyl)isothiazol-3-yl]methyl]-2,6-diazaspiro[3.3]heptan-2-yl]methanone]
The IC50 of the first is 8-fold lower: 10.8 nM for the first, 86.8 nM for the second. The first is the more potent here.

First: O=C(N1CC2(CC(n3cnc(C(F)(F)F)n3)C2)C1)N1CC2(CN(Cc3ncc(C(F)(F)F)s3)C2)C1 [Example 149]
Second: O=C(N1CC2(CC(n3cnc(C(F)(F)F)n3)C2)C1)N1CC2(CN(Cc3cc(C(F)(F)F)ns3)C2)C1 [Example 153, [6-[[3-(trifluoromethyl)isothiazol-5-yl]methyl]-2,6-diazaspiro[3.3]heptan-2-yl]-[6-[3-(trifluoromethyl)-1,2,4-triazol-1-yl]-2-azaspiro[3.3]heptan-2-yl]methanone]
The IC50 of the first is 8.6-fold lower: 1.78 nM for the first, 15.3 nM for the second.

First: O=C(N1CC2(CC(n3cnc(C4CC4)n3)C2)C1)N1CC2(CN(Cc3ncc(C(F)(F)F)s3)C2)C1 [Example 150, [6-(3-cyclopropyl-1,2,4-triazol-1-yl)-2-azaspiro[3.3]heptan-2-yl]-[6-[[5-(trifluoromethyl)thiazol-2-yl]methyl]-2,6-diazaspiro[3.3]heptan-2-yl]methanone]
Second: O=C(N1CC2(CC(n3cnc(C4CC4)n3)C2)C1)N1CC2(CN(Cc3cc(C(F)(F)F)sn3)C2)C1 [Example 156, [6-(3-cyclopropyl-1,2,4-triazol-1-yl)-2-azaspiro[3.3]heptan-2-yl]-[6-[[5-(trifluoromethyl)isothiazol-3-yl]methyl]-2,6-diazaspiro[3.3]heptan-2-yl]methanone]
The IC50 of the first is 2.5-fold lower: 1.52 nM for the first, 3.8 nM for the second. The first is the more potent here.

`O=C(N1CC2(CC(c3cc(C4CC4)n[nH]3)C2)C1)N1CC2(CN(Cc3cc(C(F)(F)F)ns3)C2)C1` [Example 151, [6-(3-cyclopropyl-1H-pyrazol-5-yl)-2-azaspiro[3.3]heptan-2-yl]-[6-[[3-(trifluoromethyl)isothiazol-5-yl]methyl]-2,6-diazaspiro[3.3]heptan-2-yl]methanone] and `Cn1nc(CN2CC3(C2)CN(C(=O)N2CC4(CC(c5cc(C6CC6)n[nH]5)C4)C2)C3)cc1C(F)(F)F` [Example 160] are within 1.5-fold of each other in IC50: 2.12 nM for the first, 2.08 nM for the second.

Going from `O=C(N1CC2(CC(n3cnc(C4(O)CC4)n3)C2)C1)N1CC2(CN(Cc3cc(C(F)(F)F)ns3)C2)C1` [Example 152, [6-[3-(1-hydroxycyclopropyl)-1,2,4-triazol-1-yl]-2-azaspiro[3.3]heptan-2-yl]-[6-[[3-(trifluoromethyl)isothiazol-5-yl]methyl]-2,6-diazaspiro[3.3]heptan-2-yl]methanone] to `O=C(N1CC2(CC(n3cnc(C4CC4)n3)C2)C1)N1CC2(CN(Cc3cc(C(F)(F)F)ns3)C2)C1` [Example 154, [6-(3-cyclopropyl-1,2,4-triazol-1-yl)-2-azaspiro[3.3]heptan-2-yl]-[6-[[3-(trifluoromethyl)isothiazol-5-yl]methyl]-2,6-diazaspiro[3.3]heptan-2-yl]methanone], the IC50 falls from 161 nM to 2.64 nM (61-fold).

Going from `Cn1ncc(C(F)(F)F)c1CN1CC2(C1)CN(C(=O)N1CC3(CC(c4cc(C5CC5)n[nH]4)C3)C1)C2` [Example 157, [6-(3-cyclopropyl-1H-pyrazol-5-yl)-2-azaspiro[3.3]heptan-2-yl]-[6-[[2-methyl-4-(trifluoromethyl)pyrazol-3-yl]methyl]-2,6-diazaspiro[3.3]heptan-2-yl]methanone] to `Cn1ncc(CN2CC3(C2)CN(C(=O)N2CC4(CC(c5cc(C6CC6)n[nH]5)C4)C2)C3)c1C(F)(F)F` [Example 163, [6-(3-cyclopropyl-1H-pyrazol-5-yl)-2-azaspiro[3.3]heptan-2-yl]-[6-[[1-methyl-5-(trifluoromethyl)pyrazol-4-yl]methyl]-2,6-diazaspiro[3.3]heptan-2-yl]methanone], the IC50 rises from 0.63 nM to 3.3 nM (5.2-fold). The first is the more potent here.

Compared with `Cn1ncc(C(F)(F)F)c1CN1CC2(C1)CN(C(=O)N1CC3(CC(n4cnc(C(F)(F)F)n4)C3)C1)C2` [Example 158, [6-[[2-methyl-4-(trifluoromethyl)pyrazol-3-yl]methyl]-2,6-diazaspiro[3.3]heptan-2-yl]-[6-[3-(trifluoromethyl)-1,2,4-triazol-1-yl]-2-azaspiro[3.3]heptan-2-yl]methanone], `Cn1nc(CN2CC3(C2)CN(C(=O)N2CC4(CC(n5cnc(C(F)(F)F)n5)C4)C2)C3)cc1C(F)(F)F` [Example 161, [6-[[1-methyl-5-(trifluoromethyl)pyrazol-3-yl]methyl]-2,6-diazaspiro[3.3]heptan-2-yl]-[6-[3-(trifluoromethyl)-1,2,4-triazol-1-yl]-2-azaspiro[3.3]heptan-2-yl]methanone] is 3.9-fold lower in IC50: 9.26 nM for the first, 2.39 nM for the second.

First: Cn1ncc(C(F)(F)F)c1CN1CC2(C1)CN(C(=O)N1CC3(CC(n4cnc(C5CC5)n4)C3)C1)C2 [Example 159, [6-(3-cyclopropyl-1,2,4-triazol-1-yl)-2-azaspiro[3.3]heptan-2-yl]-[6-[[2-methyl-4-(trifluoromethyl)pyrazol-3-yl]methyl]-2,6-diazaspiro[3.3]heptan-2-yl]methanone]
Second: Cn1nc(CN2CC3(C2)CN(C(=O)N2CC4(CC(n5cnc(C6CC6)n5)C4)C2)C3)cc1C(F)(F)F [Example 162, [6-(3-cyclopropyl-1,2,4-triazol-1-yl)-2-azaspiro[3.3]heptan-2-yl]-[6-[[1-methyl-5-(trifluoromethyl)pyrazol-3-yl]methyl]-2,6-diazaspiro[3.3]heptan-2-yl]methanone]
The IC50 of the first is 2.4-fold lower: 2.2 nM for the first, 5.27 nM for the second. The first is the more potent here.
